The text below walks through data of ChEMBL document CHEMBL1150868, “Verbenachalcone, a novel dimeric dihydrochalcone with potentiating activity on nerve growth factor-action from Verbena littoralis” (J Nat Prod, 2001).

In experiment [1] the test system is PC-12. The experiment is described as follows: Induction of neurite outgrowth in rat PC12D cells at 1 to 30 uM in absence of nerve growth factor by microscopy. It counts as functional, cell-based.
Experiment [2] deals with PC-12. The experiment is described as follows: Enhancement of nerve growth factor-stimulated neurite outgrowth in rat PC12D cells at > 10 uM by microscopy. The class given is functional, cell-based.

Active and inactive are the calls of the source. No cut-off for these calls is given here.

Consider `COc1cc(CCC(=O)c2ccc(O)cc2O)ccc1Oc1cc(CCC(=O)c2ccc(O)cc2O)ccc1O`, for which the outcome in experiment [1] was inactive. Further, the outcome in experiment [2] was Active.
